# Test results as given in US20250304939A1, “TAILORED ANTI-FUNGAL DRUGS AND TOOLS TO DIAGNOSE INVASIVE FUNGAL INFECTIONS” (priority 2022, published 2025).
# Substitutions are numbered along the chain they refer to.
# B1: wild-type rMASP-1 (^444KLMAR^448): recombinant wild-type MASP-1, a serine protease from the complement system, containing 444KLMAR448 (protein, UniProt P48740 20-699, looked up)
# Mannan-binding lectin serine …: HTVELNNMFGQIQSPGYPDSYPSDSEVTWNITVPDGFRIKLYFMHFNLESSYLCEYDYVKVETEDQVLATFCGRETTDTEQTPGQEVVLSPGSFMSITFRSDFSNEERFTGFDAHYMAVDVDECKEREDEELSCDHYCHNYIGGYYCSCRFGYILHTDNRTCRVECSDNLFTQRTGVITSPDFPNPYPKSSECLYTIELEEGFMVNLQFEDIFDIEDHPEVPCPYDYIKIKVGPKVLGPFCGEKAPEPISTQSHSVLILFHSDNSGENRGWRLSYRAAGNECPELQPPVHGKIEPSQAKYFFKDQVLVSCDTGYKVLKDNVEMDTFQIECLKDGTWSNKIPTCKIVDCRAPGELEHGLITFSTRNNLTTYKSEIKYSCQEPYYKMLNNNTGIYTCSAQGVWMNKVLGRSLPTCLPVCGLPKFSRKLMARIFNGRPAQKGTTPWIAMLSHLNGQPFCGGSLLGSSWIVTAAHCLHQSLDPEDPTLRDSDLLSPSDFKIILGKHWRLRSDENEQHLGVKHTTLHPQYDPNTFENDVALVELLESPVLNAFVMPICLPEGPQQEGAMVIVSGWGKQFLQRFPETLMEIEIPIVDHSTCQKAYAPLKKKVTRDMICAGEKEGGKDACAGDSGGPMVTLNRERGQWYLVGTVSWGDDCGKKDRYGVYSYIHHNKDWIQRVTGVRN
# B2: mutated rMASP-1 (^444DDDDK^448): recombinant MASP-1 in which 444KLMAR448 was substituted by DDDDK (SEQ ID NO: 4), activated version (protein, UniProt P48740 20-699, looked up, variant K444D L445D M446D A447D R448K)
# Mannan-binding lectin serine …: B1 Mannan-binding lectin serine … with K425D, L426D, M427D, A428D, R429K
# modifications: activated
# B3: zymogen mutated rMASP-1: zymogen version of the mutated rMASP-1 (444DDDDK448) (protein, UniProt P48740 20-699, looked up, variant K444D L445D M446D A447D R448K)
# pro-form: B1 Mannan-binding lectin serine … with K425D, L426D, M427D, A428D, R429K
# modifications: pro-form zymogen, enterokinase site
# Tests used:
# A. flavus = experiment: Biotin-tagged peptide binding to heat-inactivated conidia, flow cytometry; set-up: species or system Aspergillus flavus; conditions: 5 μg/ml
# Description: (§1) A 30 amino acid peptide comprising the KLMAR sequence was generated with an N-terminal biotin-tag. […] 5 μg/ml of the N-term biotin-tagged peptides were incubated with 1×10^7 heat-inactivated conidia/ml from different Aspergillus species and from fungi belonging to the Mucorales order. The peptide binding was subsequently detected with a FITC-coupled streptavidin using flow cytometry (Beckman Coulter, Gallios).
# A. fumigatus conidia [1] = experiment: Biotin-tagged 30 amino acid peptide binding to heat-inactivated conidia, FITC-streptavidin flow cytometry; set-up: species or system Aspergillus fumigatus; conditions: for peptide binding to A. fumigatus conidia: 5 μg/ml N-term biotin-tagged peptide, 1×10^7 heat-inactivated conidia/ml
# Description: as §1
# Three 30 amino acid peptides from the CCP2 domain of MASP-1 were generated with an N-terminal biotin-tag. CCP2 Ctrl.Pep1: […], CCP2 Ctrl.Pep2: […], CCP2 Ctrl.Pep3: […]. 5 and 10 μg/ml of the N-term biotin-tagged peptides were incubated with 1×10^7 heat-inactivated A. fumigatus conidia/ml and the peptide binding was detected with a FITC-coupled streptavidin using flow cytometry (BD, Celesta).
# 5 μg/ml of the N-term biotin-tagged peptides with C→S mutations at position 7 (C7S), position 11 (C11S) and both positions (C7S+C11S) were incubated with 1×10^7 heat-inactivated A. fumigatus conidia/ml. The peptide binding was subsequently detected with a FITC-coupled streptavidin using flow cytometry (BD, Celesta).
# 5 μg/ml of the N-term biotin-tagged MASP-1 peptide were incubated with 1×10^7 heat-inactivated A. fumigatus conidia/ml in barbital buffer (containing Ca2+) with or without 20 mM EDTA that chelates the calcium. The peptide binding was subsequently detected with a FITC-coupled streptavidin using flow cytometry (Beckman Coulter, Gallios).
# The binding of the MASP-1 peptide was compared to the binding of a MASP-3 peptide covering the same protein region and thus having partly overlapping amino acid sequences. MASP-1 peptide: […] (SEQ ID NO: 1). MASP-3 peptide: […] (SEQ ID NO: 3). 5 μg/ml of the N-term biotin-tagged peptides were incubated with 1×10^7 heat-inactivated A. fumigatus conidia/ml. The peptide binding was subsequently detected with a FITC-coupled streptavidin using flow cytometry (Beckman Coulter, Gallios).
# A. niger = experiment: Biotin-tagged peptide binding to heat-inactivated conidia, flow cytometry; set-up: species or system Aspergillus niger; conditions: 5 μg/ml
# Description: as §1
# HMEC-1 cells = experiment: Peptide binding to human cells, flow cytometry; conditions: 5 μg/ml; 1×10^7 cells/ml
# Description: (§2) 5 μg/ml of the N-term biotin-tagged MASP-1 peptide was incubated with THP-1 and HMEC-1 cells (1×10^7 cells/ml). The peptide binding was subsequently detected with a FITC-coupled streptavidin using flow cytometry (Beckman Coulter, Gallios).
# THP-1 cells = experiment: Peptide binding to human cells, flow cytometry; conditions: 5 μg/ml; 1×10^7 cells/ml
# Description: as §2
# Lichtemia corymbifera = experiment: Biotin-tagged peptide binding to heat-inactivated conidia, flow cytometry; conditions: 5 μg/ml
# Description: as §1
# Mucor circinelloides = experiment: as above; conditions: 5 μg/ml
# Description: as §1
# Rhizopus arrhizus = experiment: as above; conditions: 5 μg/ml
# Description: as §1
# A. terreus = experiment: as above; set-up: species or system Aspergillus terreus; conditions: 5 μg/ml
# Description: as §1
# Aspergillus fumigatus = experiment: Recombinant MASP-1 binding to A. fumigatus growth stages, fluorescence microscopy; conditions: 5 μg/ml, resting conidia, swollen conidia, germ tubes and hyphae
# Description: MASP-1 binding was tested on the different growth stages of A. fumigatus. First, the A. fumigatus conidia were incubated on microscopy glass slides for 0, 4, 8 and 16 hours to obtain resting conidia, swollen conidia, germ tubes and hyphae. Recombinant MASP-1 was then added in a concentration of 5 μg/ml and binding was detected with a pan anti-MASP-1/-3/MAP-1 monoclonal antibody 8B3 and Alexa fluor 488-coupled goat anti-mouse antibody. […] This is very surprising since until now, MASP-1 is known only to interact with endogenous pattern recognition molecules (PRMs) and not so-called pathogen-associated molecular patterns (PAMPs).
# MASP-1, a serine protease from the complement system, binds directly to various pathogenic fungi, for example, Aspergillus fumigatus and this knowledge can be utilized to design a targeted antifungal compound. MASP-1 binding was tested on the different growth stages of A. fumigatus. First, the A. fumigatus conidia were incubated on microscopy glass slides for 0, 4, 8 and 16 hours to obtain resting conidia, swollen conidia, germ tubes and hyphae. Recombinant MASP-1 was then added in a concentration of 5 μg/ml and binding was detected with a pan anti-MASP-1/-3/MAP-1 monoclonal antibody 8B3 and Alexa fluor 488-coupled goat anti-mouse antibody.
# A. fumigatus conidia [2] = experiment: rMASP-1 (wild-type/mutated) binding to heat-inactivated conidia, flow cytometry; set-up: species or system Aspergillus fumigatus; conditions: 5 μg/ml, 1×10^7 heat-inactivated conidia/ml
# Description: A. fumigatus conidia were heat-inactivated (15 min 121° C.) to eliminate contamination in the laboratory. 1×10^7 conidia/ml were incubated with 5 μg/ml recombinant wild-type MASP-1 (^444KLMAR^448) or mutated rMASP-1 (^444DDDDK^448). The binding of MASP-1 was detected using 10 μg/ml of a pan anti-MASP-1/-3/MAP-1 monoclonal antibody 8B3 followed by a FITC-conjugated goat anti-mouse polyclonal antibody. Binding was measured as the mean fluorescence intensity using flow cytometry (Beckman Coulter, Gallios).
# The experiment in this example 2A was performed using the method as described in example 2.
molecule,measurement,setting,value
MASP-1 peptide: 30 amino acid MASP-1 peptide GRSLPTCLPVCGLPKFSRKLMARIFNGRPA (SEQ ID NO: 1),peptide binding to A. flavus conidia,A. flavus,successfully bound
same,peptide binding to A. fumigatus conidia,A. fumigatus conidia [1],successfully bound
same,peptide binding to A. fumigatus conidia with calcium,"A. fumigatus conidia [1]; 5 μg/ml, barbital buffer (containing Ca2+) without EDTA",bound equally well
same,peptide binding to A. fumigatus conidia without calcium,"A. fumigatus conidia [1]; 5 μg/ml, barbital buffer with 20 mM EDTA",bound equally well
same,"peptide binding to A. fumigatus conidia (median fluorescence intensity), CCP2 domain comparison","A. fumigatus conidia [1]; 5 and 10 μg/ml, heat-inactivated conidia, BD Celesta",bound
same,peptide binding to A. niger conidia,A. niger,successfully bound
same,peptide binding to HMEC-1 endothelial cell line,HMEC-1 cells,did not show any binding
same,peptide binding to THP-1 monocytic cell line,THP-1 cells,did not show any binding
same,peptide binding to Lichtemia corymbifera conidia,Lichtemia corymbifera,successfully bound
same,peptide binding to Mucor circinelloides conidia,Mucor circinelloides,successfully bound
same,peptide binding to Rhizopus arrhizus conidia,Rhizopus arrhizus,successfully bound
same,peptide binding to A. terreus conidia,A. terreus,successfully bound
"MASP-3 peptide: 30 aa MASP-3 peptide covering the same protein region, GRSLPTCLPECGQPSRSLPSLVKRIIGGRN (SEQ ID NO: 3) (listed as Homo sapiens) [reference compound]",peptide binding to A. fumigatus conidia,A. fumigatus conidia [1],did not bind
same,peptide binding to HMEC-1 endothelial cell line,HMEC-1 cells,Neither of the 30 aa MASP peptides bind
same,peptide binding to THP-1 monocytic cell line,THP-1 cells,Neither of the 30 aa MASP peptides bind
B1,recombinant MASP-1 binding to A. fumigatus growth stages,Aspergillus fumigatus,binding was detected for all growth stages
same,binding of rMASP-1 to A. fumigatus conidia (mean fluorescence intensity),A. fumigatus conidia [2],binds
B2,binding of rMASP-1 to A. fumigatus conidia (mean fluorescence intensity),A. fumigatus conidia [2],did not bind
same,binding of rMASP-1 to A. fumigatus conidia (mean fluorescence intensity),A. fumigatus conidia [2]; listed as active mutated rMASP-1,Neither the active nor zymogen mutated rMASP-1 (44^4DDDDK^448) bound
B3,binding of rMASP-1 to A. fumigatus conidia (mean fluorescence intensity),A. fumigatus conidia [2],Neither the active nor zymogen mutated rMASP-1 (44^4DDDDK^448) bound
